Assay [1] concerns the target KMK13526-LBD (H216Y/Q245D) (Pluralibacter gergoviae, UniProt A0A0J5L7D7, H216Y/Q245D). The note with it: ITC binding stoichiometry n, individual replicates, Supplementary Figure 7d.
In assay [2] the test system is YeaJ. As to the kind of experiment: In vitro DGC activity assay of YeaJ (membrane fractions, HPLC of c-di-GMP). It counts as biochemical, S. Typhimurium. The note with it: 100 μM GTP; for Concentration of c-di-GMP: 30 °C.
Assay [3] has as its target YeaJ-LBDY210A (Salmonella enterica subsp. enterica serovar Typhimurium, UniProt Q8ZPW4, Y210A). As to the kind of experiment: ITC: DPD/AI-2 binding to YeaJ-LBD Y210A mutant. Also on record: species or system S. Typhimurium. The note with it: individual experiments, source data Fig. 2d. On the procedure: (§1) ITC measurements were carried out at 20 °C with a Nano ITC Standard Volume isothermal calorimeter (TA Instruments, New Castle, DE) controlled by the ITCRun software. The N-terminal His6 tags of all purified proteins were removed before ITC analysis. For titrations with DPD/AI-2 (Omm Scientific), the tag-free proteins were dialyzed against a Tris buffer (25 mM Tris-HCl, 150 mM NaCl, pH 7.5) and diluted to 70 μM, while DPD/AI-2 was diluted with the same buffer to 700 μM. […] After being degassed, 1 ml of the protein and 250 μl of the ligand solution were added to the sample cell and the syringe, respectively. There were 25 injections per experiment and the stirring speed was 200 rpm. In control experiments, the ligand solution was titrated into the buffer in the sample cell to obtain the heat of dilution. Microcalorimetric data were corrected by subtracting the heats of dilution and fit to the independent binding site model using the NanoAnalyze software.

Assay [4] deals with YeaJ-LBDD239A (Salmonella enterica subsp. enterica serovar Typhimurium, UniProt Q8ZPW4, D239A). As to the kind of experiment: ITC: DPD/AI-2 binding to YeaJ-LBD D239A mutant. Also noted: species or system S. Typhimurium. The note with it: head prints YeaJ-LBDY239A, individual experiments, source data Fig. 2d. The procedure: as §1
Background: Isothermal titration calorimetry measures the heat released or taken up as one component is titrated into another.

Assay [5] concerns S. Typhimurium. As to the kind of experiment: Cellular c-di-GMP quantification by LC-MS/MS. It counts as cell-based. Conditions: for Change of intracellular c-di-GMP concentration (in words): exogenous DPD/AI-2 (10 μM, 30 min). The procedure:
For stimulation with AI-2, the DPD/AI-2 solution was added to the shaking culture at OD600 of 1.3, followed by another 30 min of incubation at 37 °C. For induction by porcine bile salts and individual bile components (Sigma-Aldrich), substances were added to the static culture at OD600 of 1.1, followed by another 30 min of incubation at 37 °C. About 15 ml of culture was centrifuged and the cells were washed twice with phosphate-buffered saline (PBS, pH 7.0). The cell pellets were resuspended in 500 μl of extraction solution (acetonitrile/methanol/water, 40:40:20, v/v/v) and cooled on ice for 15 min. The samples were boiled for 10 min at 95 °C and then cooled again on ice for 15 min. After centrifugation at 20,000×g and 4 °C for 10 min, supernatants were transferred to new tubes on ice. The remaining pellets were used for two more extraction steps with 500 μl of the extraction solution without heating. Pooled supernatants for each sample were lyophilized, and pellets were resolubilized in 200 μl of distilled water. C-di-GMP concentrations were then measured by LC-MS/MS[63] (AB SCIEX QTRAP 6500+ LC-MS/MS System). Intracellular levels of c-di-GMP were normalized to the number of bacterial cells for each sample.

The target in assay [6] is T1, WP_000766134-LBD (Escherichia coli O157:H7, UniProt A0A0H3JEN8).
T1 sequence (A0A0H3JEN8 31-304): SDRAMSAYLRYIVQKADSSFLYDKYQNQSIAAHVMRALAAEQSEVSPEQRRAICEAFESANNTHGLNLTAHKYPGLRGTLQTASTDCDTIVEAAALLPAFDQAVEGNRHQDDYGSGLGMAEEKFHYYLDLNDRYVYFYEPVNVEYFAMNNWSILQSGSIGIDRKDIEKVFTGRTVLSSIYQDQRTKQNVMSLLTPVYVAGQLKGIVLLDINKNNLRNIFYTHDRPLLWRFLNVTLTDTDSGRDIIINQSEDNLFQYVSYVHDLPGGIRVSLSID
As to the kind of experiment: ITC: DPD/AI-2 binding to GAPES1 domain of the YeaJ homolog from EHEC O157:H7.

For assay [7], the target named is T2, YeaJ-LBD (Salmonella enterica subsp. enterica serovar Typhimurium, UniProt Q8ZPW4).
T2 sequence (Q8ZPW4 30-304): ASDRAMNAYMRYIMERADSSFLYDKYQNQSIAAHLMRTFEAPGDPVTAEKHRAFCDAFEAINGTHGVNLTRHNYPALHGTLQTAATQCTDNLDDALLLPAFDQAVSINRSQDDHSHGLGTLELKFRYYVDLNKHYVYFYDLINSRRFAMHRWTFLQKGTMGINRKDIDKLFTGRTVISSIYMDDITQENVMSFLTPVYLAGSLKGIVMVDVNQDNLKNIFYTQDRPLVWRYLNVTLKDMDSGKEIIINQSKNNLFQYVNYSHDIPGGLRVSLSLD
Nature of the assay: ITC: DPD/AI-2 binding to YeaJ-LBD. Also on record: species or system S. Typhimurium. The procedure:
as §1

The target in assay [8] is WP_034494714-LBD (Buttiauxella agrestis, UniProt A0A085GF42). Nature of the assay: ITC: DPD/AI-2 binding to WP_034494714-LBD. The note with it: individual replicates, Supplementary Figure 7c.
WP_034494714-LBD, sequence (A0A085GF42 27-302): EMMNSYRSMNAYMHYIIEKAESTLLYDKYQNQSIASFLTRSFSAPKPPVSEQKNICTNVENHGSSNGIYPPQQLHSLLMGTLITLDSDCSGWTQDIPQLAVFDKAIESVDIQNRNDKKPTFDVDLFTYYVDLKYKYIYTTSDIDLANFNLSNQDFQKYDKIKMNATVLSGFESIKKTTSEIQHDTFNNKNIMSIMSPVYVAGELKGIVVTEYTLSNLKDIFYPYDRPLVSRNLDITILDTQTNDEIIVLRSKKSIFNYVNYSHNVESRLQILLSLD
In assay [9] the target is KMK13526-LBD (Pluralibacter gergoviae, UniProt A0A0J5L7D7). Nature of the assay: ITC: DPD/AI-2 binding to KMK13526-LBD. Conditions: ITC binding stoichiometry n, individual replicates, Supplementary Figure 7b.
KMK13526-LBD, sequence (A0A0J5L7D7 31-310): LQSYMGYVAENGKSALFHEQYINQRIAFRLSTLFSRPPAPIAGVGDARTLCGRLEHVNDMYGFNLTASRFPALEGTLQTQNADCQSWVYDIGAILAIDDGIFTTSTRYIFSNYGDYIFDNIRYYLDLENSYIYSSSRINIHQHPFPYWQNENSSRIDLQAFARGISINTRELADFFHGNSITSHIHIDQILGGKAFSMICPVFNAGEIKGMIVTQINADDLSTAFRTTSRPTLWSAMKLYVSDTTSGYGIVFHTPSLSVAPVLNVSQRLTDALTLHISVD
For assay [10], the target named is T3, SipC (Salmonella typhimurium, UniProt E1WAC8).
T3 construct: His6 (N, cleaved yes); made in house; host or cells: E. coli BL21(DE3) (pET28a-sipC)
T3 sequence (E1WAC8 whole entry): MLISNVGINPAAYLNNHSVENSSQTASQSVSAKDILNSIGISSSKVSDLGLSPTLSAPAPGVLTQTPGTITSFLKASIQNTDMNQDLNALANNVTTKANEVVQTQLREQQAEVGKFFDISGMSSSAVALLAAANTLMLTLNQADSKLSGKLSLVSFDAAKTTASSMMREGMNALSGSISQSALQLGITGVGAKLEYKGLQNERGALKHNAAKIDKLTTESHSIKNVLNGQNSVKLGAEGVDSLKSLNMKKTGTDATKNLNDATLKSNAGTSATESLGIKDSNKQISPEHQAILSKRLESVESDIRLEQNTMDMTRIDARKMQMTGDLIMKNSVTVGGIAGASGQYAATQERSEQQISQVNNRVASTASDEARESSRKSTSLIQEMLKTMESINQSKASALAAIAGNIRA
T3 sequence (P69066 whole entry partner): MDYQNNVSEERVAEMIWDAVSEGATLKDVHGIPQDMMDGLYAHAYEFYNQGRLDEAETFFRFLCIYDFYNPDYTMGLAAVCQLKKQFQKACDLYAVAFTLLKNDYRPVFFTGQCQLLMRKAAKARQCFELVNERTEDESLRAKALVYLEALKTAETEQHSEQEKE
Type of assay: binding, S. Typhimurium. Conditions: individual replicates, Supplementary Figure 19f. The procedure: as §1
(§2) Supplementary Fig. 19 Isotherms representing binding of SicA and its variants with InvF, SipB and SipC as measured by ITC
(§3) ITC data and plots of injected heat for 25 automatic injections of 100 μM SicA (a, d, f),SicAK27A (b) or SicAN70A (c, e, g) into the sample cellcontaining 10 μM SipB (a-c), InvF (d, e), or SipC (f,g) are shown inthe upper and lower plots, respectively. […]

Assay [11] has as its target T4, InvF (Salmonella typhimurium, UniProt P69343).
T4 sequence (P69343 1-216): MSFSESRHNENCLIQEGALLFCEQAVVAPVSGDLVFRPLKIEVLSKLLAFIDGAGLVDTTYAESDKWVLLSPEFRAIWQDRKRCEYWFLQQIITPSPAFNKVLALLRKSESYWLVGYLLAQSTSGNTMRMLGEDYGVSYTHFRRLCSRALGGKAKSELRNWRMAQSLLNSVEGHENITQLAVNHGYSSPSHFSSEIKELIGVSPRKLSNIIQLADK
Conditions: individual replicates, Supplementary Figure 19d. The procedure: as §1, §2, §3

The target of assay [12] is SipB. Also on record: species or system S. Typhimurium. The note with it: ITC, individual replicates, Supplementary Figure 19a; read-out: Kd, SicA binding to SipB. The procedure: as §1, §2, §3
[13] abbreviates: individual experiments, source data Fig. 1d.

Where “and” joins values, the source holds several entries; their conditions need not be identical. Identical values can stand only once.

Results on 2 compounds are retold here after paper PMC9637222, “Autoinducer-2 and bile salts induce c-di-GMP synthesis to repress the T3SS via a T3SS chaperone” (Nature Communications, 2022).

KMK13526-LBD (H216Y/Q245D), sequence (A0A0J5L7D7 31-310 H216Y/Q245D): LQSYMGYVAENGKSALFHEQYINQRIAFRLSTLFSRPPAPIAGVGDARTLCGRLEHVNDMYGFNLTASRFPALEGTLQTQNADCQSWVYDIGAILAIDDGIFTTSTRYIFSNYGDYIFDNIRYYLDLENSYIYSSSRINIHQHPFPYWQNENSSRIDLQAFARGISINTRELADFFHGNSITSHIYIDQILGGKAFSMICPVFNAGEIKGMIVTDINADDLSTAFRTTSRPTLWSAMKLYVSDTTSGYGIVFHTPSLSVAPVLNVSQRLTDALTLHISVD

Turning to `CC(=O)C(=O)[C@@H](O)CO` [DPD/AI-2, autoinducer-2], the “n, DPD/AI-2 binding to KMK13526-LBDH216Y/Q245D” value in assay [1] is 1.11 and 1.03 and 1.17. Also, the “Concentration of c-di-GMP” value in [2] (100 μM DPD/AI-2, 30 min) is 19.68 µM and 20.02 µM and 21.70 µM; in assay [2] (100 μM DPD/AI-2, 60 min), 32.50 µM and 32.49 µM and 31.69 µM; in assay [2] (200 μM DPD/AI-2, 30 min) it was 39.23 µM and 36.03 µM and 36.70 µM; in assay [2] (200 μM DPD/AI-2, 60 min) it was 44.10 µM and 43.39 µM and 41.58 µM. Further, in assay [2] (in vitro, membrane fractions), the “Effect on DGC activity of YeaJ in synthesizing c-di-GMP (in words)” value is on record as “stimulates the activity of YeaJ”. Besides, the Kd in assay [3] was 23000 nM and 29000 nM and 26000 nM; in [4], 17000 nM; in assay [6] (read-out: Kd, DPD/AI-2 binding to WP_000766134-LBD, ITC, individual replicates, Supplementary Figure 7a), 120 nM and 170 nM; in [7] (20 °C, mean ± s.d. of three independent experiments) it was 150 ± 20 nM; in assay [7] (setting [13]), 160 nM and 130 nM; in assay [8] (read-out: Kd, DPD/AI-2 binding to WP_034494714-LBD, ITC), 32000 nM and 39000 nM and 38000 nM. Also, the “n (complex stoichiometry)” value was 1.02 and 0.93 and 1.04 in assay [3]; 0.97 and 0.93 in [4]; 1.20 and 1.19 and 1.04 in assay [7] (setting [13]). The “Change of intracellular c-di-GMP concentration (in words)” value in assay [5] (ΔluxS mutant) was “significant increase”; in assay [5] (ΔyeaJΔluxS mutant) it was “did not increase”. The “c-di-GMP (fmol/107 cells)” value in assay [5] (ΔluxS, 10 μM DPD/AI-2 for 30 min, LB, OD600 1.3, biological replicates) was 31.06 fmol/107 cells and 29.99 fmol/107 cells and 27.56 fmol/107 cells. Further, the “n, DPD/AI-2 binding to WP_000766134-LBD” value in assay [6] (ITC binding stoichiometry n, individual replicates, Supplementary Figure 7a) is 1.18 and 1.17 and 1.13. In addition, the “AI-2 binding affinity (in words)” value in assay [6] (ITC, GAPES1 domain of the YeaJ homolog from EHEC O157:H7) was “high affinity”. Moreover, the “n, DPD/AI-2 binding to WP_034494714-LBD” value in assay [8] (ITC binding stoichiometry n) is 0.94 and 0.97 and 0.98. In addition, in assay [9], the “n, DPD/AI-2 binding to KMK13526-LBD” value was 0.93 and 1.03 and 0.86.

In the case of SicA, the “n, SicA binding to SipC” value in assay [10] (ITC binding stoichiometry n) is 1.04 and 1.18 and 1.02. The Kd in assay [10] (ITC, read-out: Kd, SicA binding to SipC) is 670 nM and 550 nM; in assay [11] (read-out: Kd, SicA binding to InvF, ITC), 470 nM and 420 nM and 490 nM; in assay [12], 500 nM and 560 nM and 540 nM. Besides, the “n, SicA binding to InvF” value in [11] (ITC binding stoichiometry n) is 1.00 and 1.13 and 1.16.
